Assay results taken from the CheMixHub viscosity set.

Assay: xn = mol fraction of the nth substance listed

CCOCCO + CCCCCCC
viscosity [mPa·s], 101.33 kPa
Conditions | x1 = 0.1091 | x1 = 0.1973 | x1 = 0.299 | x1 = 0.4 | x1 = 0.5014 | x1 = 0.6074 | x1 = 0.6986 | x1 = 0.799 | x1 = 0.8989
298.15 K | 0.422 | 0.455 | 0.51 | 0.585 | 0.671 | – | 0.922 | 1.12 | 1.39
303.15 K | 0.398 | 0.428 | 0.478 | 0.541 | 0.619 | 0.673 | 0.843 | 1.013 | 1.247
308.15 K | 0.377 | 0.404 | 0.449 | 0.506 | 0.574 | 0.63 | 0.772 | 0.927 | 1.133
313.15 K | 0.355 | 0.382 | 0.422 | 0.472 | 0.535 | 0.592 | 0.713 | 0.844 | 1.026

CCOCCO + CCCCCCCC
viscosity [mPa·s], 101.33 kPa
Conditions | x1 = 0.0976 | x1 = 0.1994 | x1 = 0.3003 | x1 = 0.4001 | x1 = 0.5004 | x1 = 0.5944 | x1 = 0.6962 | x1 = 0.7983 | x1 = 0.8969
298.15 K | 0.524 | 0.566 | 0.619 | 0.687 | 0.772 | 0.87 | 1.003 | 1.179 | 1.421
303.15 K | 0.49 | 0.527 | 0.574 | 0.632 | 0.71 | 0.795 | 0.911 | 1.069 | 1.279
308.15 K | 0.463 | 0.494 | 0.538 | 0.591 | 0.657 | 0.732 | 0.834 | 0.972 | 1.155
313.15 K | 0.434 | 0.462 | 0.5 | 0.55 | 0.609 | 0.673 | 0.763 | 0.896 | 1.05

CCOCCO + CCCCCCCCC
viscosity [mPa·s], 101.33 kPa
Conditions | x1 = 0.098 | x1 = 0.2031 | x1 = 0.3023 | x1 = 0.4074 | x1 = 0.505 | x1 = 0.601 | x1 = 0.7022 | x1 = 0.8034 | x1 = 0.9003
298.15 K | 0.662 | 0.696 | 0.746 | 0.822 | 0.9 | 1.024 | 1.107 | 1.263 | 1.469
303.15 K | 0.62 | 0.646 | 0.69 | 0.753 | 0.821 | 0.929 | 1.005 | 1.137 | 1.316
308.15 K | 0.577 | 0.601 | 0.64 | 0.697 | 0.757 | 0.853 | 0.916 | 1.034 | 1.191
313.15 K | 0.537 | 0.558 | 0.596 | 0.642 | 0.698 | 0.778 | 0.837 | 0.939 | 1.075

CCOCCO + CCCCCCCCCC
viscosity [mPa·s], 101.33 kPa
Conditions | x1 = 0.0958 | x1 = 0.2018 | x1 = 0.2985 | x1 = 0.4011 | x1 = 0.4984 | x1 = 0.5978 | x1 = 0.6989 | x1 = 0.7994 | x1 = 0.8984
298.15 K | 0.828 | 0.851 | 0.905 | 0.962 | 1.046 | 1.128 | 1.223 | 1.345 | 1.512
303.15 K | 0.767 | 0.785 | 0.827 | 0.879 | 0.946 | 1.016 | 1.108 | 1.209 | 1.354
308.15 K | 0.709 | 0.725 | 0.766 | 0.806 | 0.866 | 0.929 | 1.001 | 1.096 | 1.223
313.15 K | 0.661 | 0.681 | 0.705 | 0.744 | 0.797 | 0.844 | 0.921 | 0.992 | 1.103

CC12CCC(CC1=O)C2(C)C (configuration not stated) + CCCCCCCCCC(=O)O
101.33 kPa, x2 = 0.7
Conditions | viscosity [mPa·s]
298.15 K | 10.76
303.15 K | 9.184
308.05 K | 7.889
313.05 K | 6.866
318.15 K | 6.143
323.05 K | 5.9

CCOCCO + CCCCCCCCCCCC
viscosity [mPa·s], 101.33 kPa
Conditions | x1 = 0.1001 | x1 = 0.1987 | x1 = 0.3009 | x1 = 0.3972 | x1 = 0.5014 | x1 = 0.5996 | x1 = 0.6933 | x1 = 0.7988 | x1 = 0.8984
298.15 K | 1.288 | 1.294 | 1.321 | 1.339 | 1.379 | 1.412 | 1.453 | 1.529 | 1.636
303.15 K | 1.171 | 1.174 | 1.195 | 1.223 | 1.256 | 1.284 | 1.317 | 1.387 | 1.465
308.15 K | 1.075 | 1.076 | 1.09 | 1.115 | 1.138 | 1.166 | 1.191 | 1.254 | 1.316
313.15 K | 0.986 | 0.987 | 0.997 | 1.02 | 1.045 | 1.063 | 1.082 | 1.139 | 1.191

CC12CCC(CC1=O)C2(C)C (configuration not stated) + CCCCCCCCCCO
101.33 kPa, x2 = 0.7
Conditions | viscosity [mPa·s]
298.15 K | 12.14
303.15 K | 10.24
308.05 K | 8.898
313.15 K | 7.817
318.05 K | 6.806
323.05 K | 5.915

CCOCCO + CCCCCCCCO
298.15 K, 101 kPa
Conditions | viscosity [mPa·s]
x1 = 0.1384 | 6.062
x1 = 0.2654 | 5.061
x1 = 0.3825 | 4.268
x1 = 0.4907 | 3.649
x1 = 0.591 | 3.172
x1 = 0.6843 | 2.805
x1 = 0.7713 | 2.504
x1 = 0.8525 | 2.266
x1 = 0.9286 | 2.078

CC(CC(C)(C)C)CP(=O)(O)CC(C)CC(C)(C)C (configuration not stated) + CCCCCCCO
298.15 K, 101 kPa
Conditions | viscosity [mPa·s]
x1 = 0.0091 | 6.029
x1 = 0.0166 | 6.297
x1 = 0.0189 | 6.395
x2 = 0.0832 | 103
x2 = 0.1509 | 92.76
x2 = 0.2814 | 72.97
x2 = 0.4338 | 51.94
x2 = 0.5979 | 33.45
x2 = 0.6948 | 24.29
x2 = 0.7164 | 22.65
x2 = 0.819 | 14.88
x2 = 0.83 | 13.87
x2 = 0.8984 | 10.18
x2 = 0.9056 | 9.875
x2 = 0.9596 | 7.316

CCOCCO + CCCCCCCO
298.15 K, 101 kPa
Conditions | viscosity [mPa·s]
x1 = 0.1253 | 4.967
x1 = 0.2438 | 4.207
x1 = 0.3559 | 3.655
x1 = 0.4623 | 3.23
x1 = 0.5632 | 2.902
x1 = 0.6592 | 2.617
x1 = 0.7505 | 2.383
x1 = 0.8376 | 2.2
x1 = 0.9207 | 2.041

CCOCCO + CCCCCO
298.15 K, 101 kPa
Conditions | viscosity [mPa·s]
x1 = 0.098 | 3.167
x1 = 0.1965 | 2.864
x1 = 0.2954 | 2.619
x1 = 0.3947 | 2.431
x1 = 0.4945 | 2.283
x1 = 0.5947 | 2.178
x1 = 0.6953 | 2.099
x1 = 0.7964 | 2.027
x1 = 0.898 | 1.954

COCc1ccccc1 + CCCCCOC(C)=O
Conditions | viscosity [mPa·s]
298.15 K, 101 kPa, x2 = 0.5 | 0.8479

Oc1ccc(Cl)cc1 + CCCCCOC(C)=O
Conditions | viscosity [mPa·s]
298.15 K, 101 kPa, x1 = 0.5 | 1.27

CNC(C)=O + CCCCN
308.15 K, 101 kPa
Conditions | viscosity [mPa·s]
x1 = 0.0335 | 0.414
x1 = 0.1849 | 0.5985
x1 = 0.3822 | 0.9135
x1 = 0.4385 | 1.049
x1 = 0.5671 | 1.387
x1 = 0.6888 | 1.829
x1 = 0.7756 | 2.15
x1 = 0.8792 | 2.675
x1 = 0.9781 | 3.172

Oc1ccc(Cl)cc1 + CCCCN(CCCC)CCCC
298.16 K, 101 kPa
Conditions | viscosity [mPa·s]
x1 = 0.5057 | 14.04
x1 = 0.5498 | 23.8
x1 = 0.6004 | 46.15
x1 = 0.6534 | 94.2
x1 = 0.7034 | 222.8
x1 = 0.714 | 261.7
x1 = 0.7471 | 389.7
x1 = 0.7798 | 438.6
x1 = 0.8047 | 424.7
x1 = 0.8194 | 339.1
x1 = 0.8508 | 228.2
x1 = 0.8615 | 173.1
x1 = 0.88 | 141.3
x1 = 0.9041 | 99.6
x1 = 0.915 | 73.06
x1 = 0.9457 | 46.28
x1 = 0.9798 | 26.23
x2 = 0.002811 | 19.56

Oc1ccc(Cl)cc1 + CCCCNCCCC
298.16 K, 101 kPa
Conditions | viscosity [mPa·s]
x1 = 0.4053 | 3.541
x1 = 0.5045 | 11.99
x1 = 0.5585 | 31.68
x1 = 0.6051 | 56.94
x1 = 0.6526 | 126.7
x1 = 0.6871 | 181.4
x1 = 0.7235 | 251.1
x1 = 0.7533 | 273.6
x1 = 0.7813 | 263
x1 = 0.8104 | 221
x1 = 0.84 | 163.2
x1 = 0.8686 | 111.1
x1 = 0.8961 | 79.37
x1 = 0.9256 | 53.62
x1 = 0.9749 | 26.85

Cc1ccc([S@@](=O)O[C@@H]2C[C@H](C)CC[C@H]2C(C)C)cc1 + CCCCO
298 K, 101.3 kPa
Conditions | viscosity [mPa·s]
x1 = 0.00223 | 2.53
x1 = 0.0043 | 2.548
x1 = 0.00647 | 2.573
x1 = 0.0087 | 2.586
x1 = 0.01163 | 2.628
